# Data from US20140005163A1 (NOVARTIS AG, priority 2010, published 2014).
# Experiments:
# Solubility at pH 6.8 = type: physicochemical; details: pH 6.8, aqueous buffer, thermodynamic from solid; read-out: solubility
# Procedure, shortened: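 Solubility was measured at pH 6.8 following the cited Zhou et al. (2007) procedure.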
# mTOR = target: T1, mTOR (Homo sapiens, UniProt P42345); experiment: Biochemical assay for m-TOR by TR-FRET; details: 8 μM ATP, 400 nM GFP-4EBP1, 0.5 nM mTOR
# T1 construct: purchased Invitrogen Corporation (Carlsbad/CA, USA) PV4753
# Procedure, shortened: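 mTOR (0.5 nM) was incubated at rt with ATP (8 μM final) and GFP-4EBP1 (400 nM final) in 50 mM HEPES pH 7.5, 10 mM MnCl2, 50 mM NaCl, 1 mM EGTA, 1 mM DTT. EDTA stop with Tb3+-anti-p4EBP1 [pThr46] antibody (0.5 nM); TR-FRET read 15 min later.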
# [1] = tested on: PKB Ser473 phosphorylation in Rat1-myr-HA-p110 alpha cells; experiment: Reverse protein array assay, PKB Ser473 phosphorylation in Rat1-myr-p110 alpha cells; type: cell-based; details: 0.5 h, pAkt Ser473, 30 minutes compound incubation, read-out: p-PKB IC50
# Procedure, shortened: (§1)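 Lysates were arrayed at four dilutions, and phospho-PKB Ser473 was quantified by relative fluorescence signal. They came from Rat1-myr-HA-p110 alpha, beta or delta cells exposed for 30 min at 37 °C to an 8-point compound series with 0.2% DMSO constant.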
# [2] = tested on: PKB Ser473 phosphorylation in Rat1-myr-HA-p110 beta cells; experiment: Reverse protein array assay, PKB Ser473 phosphorylation in Rat1-myr-p110 beta cells; type: cell-based; details: 0.5 h, pAkt Ser473, 30 minutes incubation, read-out: p-PKB IC50
# Procedure, shortened: as §1
# [3] = tested on: PKB Ser473 phosphorylation in Rat1-myr-HA-p110 delta cells; experiment: Reverse protein array assay, PKB Ser473 phosphorylation in Rat1-myr-p110 delta cells; type: cell-based; details: read-out: p-PKB IC50
# Procedure, shortened: as §1
# [4] = tested on: S6 Ribosomal Protein phosphorylation Ser235/236 in TSC1 null mouse embryo fibroblast (MEF) cells; experiment: Reverse protein array assay, S6 Ribosomal Protein phosphorylation Ser235/236 in TSC1 null MEF cells; type: cell-based; details: 1 h, pS6 ribosomal protein Ser235/236, 60 minutes incubation, read-out: p-S6 IC50
# Procedure, shortened: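 TSC1−/− MEFs, seeded and held ≥20 h at 37 °C/5% CO2, were exposed to 8-step serial compound dilutions (0.02% DMSO final; DMSO vehicle control) for 60 min at 37 °C. Cells were then lysed on ice for 10 min and lysates spotted onto reverse protein array chips.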
# T1 sequence (P42345 1360-2549 limits assumed): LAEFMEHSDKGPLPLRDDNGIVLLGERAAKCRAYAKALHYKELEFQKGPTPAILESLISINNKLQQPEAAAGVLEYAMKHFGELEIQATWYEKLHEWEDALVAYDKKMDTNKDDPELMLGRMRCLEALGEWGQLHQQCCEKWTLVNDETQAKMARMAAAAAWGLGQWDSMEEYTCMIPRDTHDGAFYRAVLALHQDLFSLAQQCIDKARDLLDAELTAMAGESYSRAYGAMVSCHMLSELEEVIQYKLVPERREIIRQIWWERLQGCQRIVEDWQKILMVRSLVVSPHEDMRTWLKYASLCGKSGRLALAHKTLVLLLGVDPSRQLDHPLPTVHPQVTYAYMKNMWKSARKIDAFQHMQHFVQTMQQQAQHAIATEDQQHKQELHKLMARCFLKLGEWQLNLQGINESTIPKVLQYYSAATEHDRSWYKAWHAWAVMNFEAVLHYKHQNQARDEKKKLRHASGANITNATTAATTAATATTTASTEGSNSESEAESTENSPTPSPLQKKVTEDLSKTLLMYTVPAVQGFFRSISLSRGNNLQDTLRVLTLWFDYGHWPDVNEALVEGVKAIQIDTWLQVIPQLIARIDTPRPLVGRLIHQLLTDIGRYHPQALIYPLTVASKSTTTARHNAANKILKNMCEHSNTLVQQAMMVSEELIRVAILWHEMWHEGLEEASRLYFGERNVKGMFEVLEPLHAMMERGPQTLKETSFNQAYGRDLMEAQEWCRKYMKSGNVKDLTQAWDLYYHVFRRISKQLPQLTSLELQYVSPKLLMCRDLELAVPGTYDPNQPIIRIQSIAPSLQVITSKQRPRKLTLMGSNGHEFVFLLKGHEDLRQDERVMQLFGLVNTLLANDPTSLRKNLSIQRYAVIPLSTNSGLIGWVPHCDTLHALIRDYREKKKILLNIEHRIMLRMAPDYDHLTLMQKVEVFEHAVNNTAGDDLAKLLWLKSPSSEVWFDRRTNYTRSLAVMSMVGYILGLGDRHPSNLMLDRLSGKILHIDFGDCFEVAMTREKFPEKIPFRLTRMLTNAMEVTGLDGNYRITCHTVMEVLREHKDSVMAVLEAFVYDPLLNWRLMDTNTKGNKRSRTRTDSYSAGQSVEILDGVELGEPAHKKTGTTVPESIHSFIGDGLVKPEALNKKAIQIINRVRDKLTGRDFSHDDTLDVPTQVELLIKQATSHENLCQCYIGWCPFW
SMILES,solubility (Solubility at pH 6.8),IC50 (mTOR),IC50 [1],IC50 [2],IC50 [3],IC50 [4]
"COc1ccc(-c2ccc3ncc4c(c3c2)n(-c2c(C)nn(C)c2C)c(=O)n4C)cn1 [Example 2.4, 8-(6-Methoxy-pyridin-3-yl)-3-methyl-1-(1,3,5-trimethyl-1H-pyrazol-4-yl)-1,3-dihydro-imidazo[4,5-c]quinolin-2-one]",0.05 mg/mL,0.448 µM,0.065 µM,0.386 µM,0.882 µM,–
"CCOc1ccc(-c2ccc3ncc4c(c3c2)n(-c2c(C)nn(CC(=O)N(C)C)c2C)c(=O)n4C)cn1 [Example 3.12, 2-{4-[8-(6-Ethoxy-pyridin-3-yl)-3-methyl-2-oxo-2,3-dihydro-imidazo[4,5-c]quinolin-1-yl]-3,5-dimethyl-pyrazol-1-yl}-N,N-dimethyl-acetamide]",> 0.5 mg/mL,0.548 µM,0.128 µM,0.166 µM,0.211 µM,0.175 µM
"CCn1cc(-n2c(=O)n(C)c3cnc4ccc(-c5ccc(N(C)C)nc5)cc4c32)c(C)n1 [Example 4.2, 8-(6-Dimethylamino-pyridin-3-yl)-1-(1-ethyl-3-methyl-1H-pyrazol-4-yl)-3-methyl-1,3-dihydro-imidazo[4,5-c]quinolin-2-one]",0.007 mg/mL,0.015 µM,0.014 µM,0.019 µM,0.044 µM,0.007 µM
"Cc1nn(C(C)C)cc1-n1c(=O)n(C)c2cnc3ccc(-c4ccc(N5CCC5)nc4)cc3c21 [Example 5.2, 8-(6-Azetidin-1-yl-pyridin-3-yl)-1-(1-isopropyl-3-methyl-1H-pyrazol-4-yl)-3-methyl-1,3-dihydro-imidazo[4,5-c]quinolin-2-one]",0.007 mg/mL,0.013 µM,0.014 µM,0.022 µM,0.027 µM,0.005 µM
"Cc1ccc(-c2ccc3ncc4c(c3c2)n(-c2cn(C)nc2C)c(=O)n4C)cn1 [Example 7.2, 1-(1,3-Dimethyl-1H-pyrazol-4-yl)-3-methyl-8-(6-methyl-pyridin-3-yl)-1,3-dihydro-imidazo[4,5-c]quinolin-2-one]",0.009 mg/mL,0.034 µM,0.014 µM,0.035 µM,0.028 µM,0.0135 µM
"CNC(=O)c1ccc(-c2ccc3ncc4c(c3c2)n(-c2cn(C)nc2C)c(=O)n4C)cn1 [Example 15.1, 5-[1-(1,3-Dimethyl-1H-pyrazol-4-yl)-3-methyl-2-oxo-2,3-dihydro-1H-imidazo[4,5-c]quinolin-8-yl]-pyridine-2-carboxylic acid methylamide]",0.01 mg/mL,0.013 µM,0.025 µM,0.021 µM,0.091 µM,0.011 µM
"Cc1nn(C)c(C)c1-n1c(=O)n(C)c2cnc3ccc(-c4cccc(O)c4)cc3c21 [Example 32.2, 8-(3-Hydroxy-phenyl)-3-methyl-1-(1,3,5-trimethyl-1H-pyrazol-4-yl)-1,3-dihydro-imidazo[4,5-c]quinolin-2-one]",0.194 mg/mL,–,0.221 µM,0.725 µM,0.366 µM,0.558 µM
"Cc1nn(C)cc1-n1c(=O)n(C)c2cnc3ccc(-c4cnc5c(c4)nc(N(C)C)n5C)cc3c21 [Example 70, 8-(2-Dimethylamino-3-methyl-3H-imidazo[4,5-b]pyridin-6-yl)-1-(1,3-dimethyl-1H-pyrazol-4-yl)-3-methyl-1,3-dihydro-imidazo[4,5-c]quinolin-2-one]",0.047 mg/mL,0.081 µM,–,0.176 µM,0.275 µM,0.016 µM
"Cc1nn(CCO)cc1-n1c(=O)n(C)c2cnc3ccc(-c4cncc(N5CCOCC5)c4)cc3c21 [Example 175.3, 1-[1-(2-Hydroxy-ethyl)-3-methyl-1H-pyrazol-4-yl]-3-methyl-8-(5-morpholin-4-yl-pyridin-3-yl)-1,3-dihydro-imidazo[4,5-c]quinolin-2-one]",> 0.486 mg/mL,0.019 µM,0.344 µM,0.692 µM,–,0.151 µM

# Further lines, with some results ahead:
solubility (Solubility at pH 6.8),IC50 (mTOR),IC50 [1],IC50 [2],IC50 [3],SMILES,IC50 [4]
0.015 mg/mL,0.011 µM,0.024 µM,0.02 µM,0.042 µM,"CCOc1ccc(-c2ccc3ncc4c(c3c2)n(-c2cn(C)nc2C)c(=O)n4C)cn1 [Example 3.1, 1-(1,3-Dimethyl-1H-pyrazol-4-yl)-8-(6-ethoxy-pyridin-3-yl)-3-methyl-1,3-dihydro-imidazo[4,5-c]quinolin-2-one]",0.04 µM
0.026 mg/mL,0.018 µM,0.059 µM,0.07 µM,0.084 µM,"CCOc1ccc(-c2ccc3ncc4c(c3c2)n(-c2cn(CC(=O)N3CCOCC3)nc2C)c(=O)n4C)cn1 [Example 3.10, 8-(6-Ethoxy-pyridin-3-yl)-3-methyl-1-[3-methyl-1-(2-morpholin-4-yl-2-oxo-ethyl)-1H-pyrazol-4-yl]-1,3-dihydro-imidazo[4,5-c]quinolin-2-one]",0.01 µM
0.071 mg/mL,0.543 µM,0.068 µM,0.615 µM,0.787 µM,"Cc1nn(C)c(C)c1-n1c(=O)n(C)c2cnc3ccc(-c4ccc(N(C)C)nc4)cc3c21 [Example 4.3, 8-(6-Dimethylamino-pyridin-3-yl)-3-methyl-1-(1,3,5-trimethyl-1H-pyrazol-4-yl)-1,3-dihydro-imidazo[4,5-c]quinolin-2-one]",–
0.041 mg/mL,0.043 µM,0.032 µM,0.047 µM,0.076 µM,"Cc1nn(C)cc1-n1c(=O)n(C)c2cnc3ccc(-c4cnc(N(C)C)nc4)cc3c21 [Example 6.2, 8-(2-Dimethylamino-pyrimidin-5-yl)-1-(1,3-dimethyl-1H-pyrazol-4-yl)-3-methyl-1,3-dihydro-imidazo[4,5-c]quinolin-2-one]",0.008 µM
0.004 mg/mL,0.677 µM,0.192 µM,0.326 µM,0.412 µM,"Cc1cc(-n2c(=O)n(C)c3cnc4ccc(-c5ccc(C(F)(F)F)nc5)cc4c32)n(C)n1 [Example 8.2, 1-(2,5-Dimethyl-2H-pyrazol-3-yl)-3-methyl-8-(6-trifluoromethyl-pyridin-3-yl)-1,3-dihydro-imidazo[4,5-c]quinolin-2-one]",–
0.039 mg/mL,0.017 µM,0.037 µM,0.038 µM,0.079 µM,"COc1cncc(-c2ccc3ncc4c(c3c2)n(-c2cn(C)nc2C)c(=O)n4C)c1 [Example 12, 1-(1,3-Dimethyl-1H-pyrazol-4-yl)-8-(5-methoxy-pyridin-3-yl)-3-methyl-1,3-dihydro-imidazo[4,5-c]quinolin-2-one]",0.007 µM
> 0.428 mg/mL,0.045 µM,0.067 µM,0.039 µM,0.125 µM,"Cc1nn(C(C)C)cc1-n1c(=O)n(C)c2cnc3ccc(-c4ccc(CO)nc4)cc3c21 [Example 16.3, 8-(6-hydroxymethyl-pyridin-3-yl)-1-(1-isopropyl-3-methyl-1H-pyrazol-4-yl)-3-methyl-1,3-dihydro-imidazo[4,5-c]quinolin-2-one]",0.061 µM
0.007 mg/mL,0.778 µM,0.05 µM,0.143 µM,0.234 µM,"CCOc1ccc(-c2ccc3ncc4c(c3c2)n(-c2c(C)nn(C)c2C)c(=O)n4C)cc1OC [Example 29.2, 8-(4-Ethoxy-3-methoxy-phenyl)-3-methyl-1-(1,3,5-trimethyl-1H-pyrazol-4-yl)-1,3-dihydro-midazo[4,5-c]quinolin-2-one]",–
0.016 mg/mL,0.763 µM,0.846 µM,–,–,"CCOc1cncc(-c2ccc3ncc4c(c3c2)n(-c2c(C)cnn2C)c(=O)n4C)c1 [Example 56.5, 1-(2,4-Dimethyl-2H-pyrazol-3-yl)-8-(5-ethoxy-pyridin-3-yl)-3-methyl-1,3-dihydro-imidazo[4,5-c]quinolin-2-one]",0.13 µM
0.003 mg/mL,0.639 µM,0.755 µM,–,0.81 µM,"COCCn1c(=O)n(C)c2ncc(-c3ccc4ncc5c(c4c3)n(-c3cn(C)nc3C)c(=O)n5C)cc21 [Example 69, 1-(1,3-Dimethyl-1H-pyrazol-4-yl)-8-[1-(2-methoxy-ethyl)-3-methyl-2-oxo-2,3-dihydro-1H-imidazo[4,5-b]pyridin-6-yl]-3-methyl-1,3-dihydro-imidazo[4,5-c]quinolin-2-one]",–
> 0.456 mg/mL,0.003 µM,< 0.005 µM,< 0.005 µM,–,"CCc1ncc(-c2ccc3ncc4c(c3c2)n(-c2cn(C)nc2C)c(=O)n4C)cc1NC(C)C [Example 162, 1-(1,3-Dimethyl-1H-pyrazol-4-yl)-8-(6-ethyl-5-isopropylamino-pyridin-3-yl)-3-methyl-1,3-dihydro-imidazo[4,5-c]quinolin-2-one]",–
